Among the data in the Kinase Knowledgebase extract (Sharma et al. 2016) are IC50 values, retold here.

Each structure is given as a SMILES string.

The target in experiment [1] is EGFR (human) (UniProt P00533). The following applies: a431.
Experiment [2] addresses EGFR (human) (UniProt P00533). The note with it: A431.

In general, IC50 refers to the concentration that gives 50% inhibition. Low values mean greater potency, high ones weaker potency.

EGFR (human), sequence (P00533 whole entry, looked up): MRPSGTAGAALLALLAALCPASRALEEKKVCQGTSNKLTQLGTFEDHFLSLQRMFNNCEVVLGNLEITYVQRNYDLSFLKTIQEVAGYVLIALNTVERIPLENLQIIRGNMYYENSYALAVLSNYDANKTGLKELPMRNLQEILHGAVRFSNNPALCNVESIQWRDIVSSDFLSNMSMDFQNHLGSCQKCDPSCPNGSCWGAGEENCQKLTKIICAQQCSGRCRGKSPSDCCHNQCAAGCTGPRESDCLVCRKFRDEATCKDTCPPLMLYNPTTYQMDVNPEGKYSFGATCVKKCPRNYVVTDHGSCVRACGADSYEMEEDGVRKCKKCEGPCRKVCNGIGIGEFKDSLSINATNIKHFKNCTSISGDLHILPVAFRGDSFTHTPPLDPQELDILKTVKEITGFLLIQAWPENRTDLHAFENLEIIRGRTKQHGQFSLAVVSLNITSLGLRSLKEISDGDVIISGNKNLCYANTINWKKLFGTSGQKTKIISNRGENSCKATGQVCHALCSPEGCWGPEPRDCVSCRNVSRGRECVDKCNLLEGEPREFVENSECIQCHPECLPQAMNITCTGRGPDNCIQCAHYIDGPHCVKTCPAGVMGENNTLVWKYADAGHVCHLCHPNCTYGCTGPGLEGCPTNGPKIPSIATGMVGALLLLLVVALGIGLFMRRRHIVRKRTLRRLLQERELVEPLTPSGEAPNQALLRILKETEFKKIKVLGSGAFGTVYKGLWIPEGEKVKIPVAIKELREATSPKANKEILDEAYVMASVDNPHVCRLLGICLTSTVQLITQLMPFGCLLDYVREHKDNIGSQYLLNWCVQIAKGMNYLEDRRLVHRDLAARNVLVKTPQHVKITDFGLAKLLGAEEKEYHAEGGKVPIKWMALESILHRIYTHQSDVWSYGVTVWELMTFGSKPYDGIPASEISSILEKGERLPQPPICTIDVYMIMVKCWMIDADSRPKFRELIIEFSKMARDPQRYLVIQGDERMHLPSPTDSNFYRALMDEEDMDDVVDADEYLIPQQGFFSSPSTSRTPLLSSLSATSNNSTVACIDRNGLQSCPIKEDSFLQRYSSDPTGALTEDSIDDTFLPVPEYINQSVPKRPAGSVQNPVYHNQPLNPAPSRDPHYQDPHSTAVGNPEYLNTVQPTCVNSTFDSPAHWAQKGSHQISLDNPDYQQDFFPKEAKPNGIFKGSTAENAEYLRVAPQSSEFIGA

In the case of `c1csc(COc2ccc(Nc3ncnc4ccccc34)cc2)c1`, the IC50 against EGFR (human) [1] and at EGFR (human) [2] was greater than 50 µM in each case.
As for `Brc1ccc2ncnc(Nc3ccc(OCc4ccccc4)cc3)c2c1`, the IC50 against EGFR (human) [1] came out at 29 µM; on EGFR (human) [2], 10 µM.
As for `c1ccc(COc2ccc(Oc3ncnc4ccccc34)cc2)cc1`, the IC50 on EGFR (human) [1] and on EGFR (human) [2] was greater than 50 µM each time.
`COc1cc2ncnc(Nc3ccc(OCc4ccccc4)cc3)c2cc1OC`: the values for the IC50 against EGFR (human) [1] and against EGFR (human) [2] were 50 µM and 5 µM, respectively.
As for `c1ccc(COc2ccc(Nc3ccnc4ccccc34)cc2)cc1`, the IC50 against EGFR (human) [1] and at EGFR (human) [2] was greater than 50 µM each time.
With `COc1cc2ncnc(Nc3ccc(Oc4ccccc4)cc3)c2cc1OC`, the figures for the half-maximal inhibitory concentration (IC50) at EGFR (human) [1] and against EGFR (human) [2] were 30 µM and 8 µM, respectively.
`COc1ccc2c(Nc3ccc(OCc4ccccc4)cc3)ncnc2c1`: the 50% inhibitory concentration (IC50) on EGFR (human) [1] was greater than 50 µM; on EGFR (human) [2], 65 µM.
Taken in the same sequence, the figures for `c1ccc(Oc2ccc(Nc3ccnc4ccccc34)cc2)cc1` were 31 µM and greater than 50 µM.
Consider `Clc1ccc2c(Nc3ccc(OCc4ccccc4)cc3)ncnc2c1`, for which the half-inhibitory concentration (IC50) was 50 µM against EGFR (human) [1] and greater than 30 µM against EGFR (human) [2].
As for `COc1cccc2ncnc(Nc3ccc(OCc4ccccc4)cc3)c12`, the figures for the IC50 at EGFR (human) [1] and against EGFR (human) [2] were 28 µM and 11 µM, respectively.
On the same counts, the results for `COc1cc2ncnc(Nc3ccc(OCc4ccccc4)c(OC)c3)c2cc1OC` are 6.9 µM and 1.6 µM.
Regarding `Cc1cc2ncnc(Nc3ccc(OCc4ccccc4)cc3)c2cc1C`, the values for the IC50 on EGFR (human) [1] and on EGFR (human) [2] were greater than 50 µM and greater than 30 µM, respectively.
Regarding `COc1ccc2ncnc(Nc3ccc(OCc4ccccc4)cc3)c2c1`, the IC50 against EGFR (human) [1] came out at 12 µM; on EGFR (human) [2], 15 µM.
Consider `COc1cc2nccc(Nc3ccc(N4C(=O)c5ccc(Cl)cc5C4=O)c(C)c3)c2cc1OC`, for which the results for the IC50 against EGFR (human) [1] and against EGFR (human) [2] were greater than 50 µM and 50 µM, respectively.
With `c1ccc(COc2cccc(Nc3ncnc4ccccc34)c2)cc1`, the values for the 50% inhibitory concentration (IC50) at EGFR (human) [1] and against EGFR (human) [2] were 50 µM and greater than 50 µM, respectively.
On the same counts, the results for `COc1cc2nccc(Nc3ccc(OCc4ccccc4)cc3)c2cc1OC` are greater than 50 µM and greater than 50 µM.
In the case of `O=[N+]([O-])c1ccc2ncnc(Nc3ccc(Oc4ccccc4)cc3)c2c1`, the IC50 at EGFR (human) [1] and on EGFR (human) [2] was greater than 50 µM in each case.
For the molecule `COc1cc2ncnc(Nc3ccc(Nc4ccccc4)cc3)c2cc1OC`, the IC50 was greater than 50 µM against EGFR (human) [1] and 15 µM against EGFR (human) [2].
